The target in series [1] is T1, aldose reductase (Rattus norvegicus, UniProt P07943).
T1 construct: The aldose reductase used is obtained from male Wistar rat crystalline lenses; from tissue; host or cells: male Wistar rat crystalline lenses
The series can be described thus: Study in vitro: inhibition of aldose reductase. The series is classed as biochemical. Conditions: enzyme from male Wistar rat crystalline lenses; L-glyceraldehyde, NADPH disappearance at 340 nm. Here is the method: 1) Study in Vitro: Inhibition of Aldose Reductase
The aldose reductase used is obtained from male Wistar rat crystalline lenses according to a modification of the method of S. HAYMAN et al. (Journal of Biological Chemistry 240, p., 877, 1965). The enzymatic extract is diluted in a phosphate buffer in the presence of NADPH and various concentrations of the test products. The reaction is initiated, with L-glyceraldehyde and the reaction rate is measured by monitoring the disappearance of NADPH by spectrophotometry at 340 nm. The reaction rate is calculated for each product concentration and then the concentration necessary for a 50% reduction in the reaction rate (IC50) is evaluated by linear interpolation.

Series [2] deals with sorbitol level in the sciatic nerves. The series can be described thus: Study in vivo: reduction of sorbitol accumulation in sciatic nerves of streptozotocin-diabetic rats. Conditions: 10 mg/kg/d oral, 4, 30 and 52 h after streptozotocin (60 mg/kg i.v.); sciatic nerve sorbitol 18 h after last dose; diabetic male Wistar rats. The method, then:
2) Study in Vivo: Reduction of Sorbitol Accumulation
200 to 250 g male Wistar rats are made diabetic by intravenous injection of streptozotocin (60 mg/kg). They then receive an oral treatment of the test products, in the form of a suspension, 4 hours, 30 hours and 52 hours after the injection of streptozotocin. Eighteen hours after the last oral treatment, the rats are stunned and decapitated and then their sciatic nerves are removed. After extraction, the sorbitol level in the nerves is measured according to the enzymatic method described by H. U. BERGMEYER (Methods of enzymatic analysis. H. U. BERGMEYER ed., Academic Press New York 3, p. 1323, 1974).
The percentage protection is calculated for each product relative to the batch of diabetic animals taking into account the sorbitol level in the sciatic nerves of nondiabetic rats.

As usually defined, the melting point is the temperature of the solid-liquid transition. The term pIC50 denotes the negative decadic logarithm of the IC50, by convention in mol/L. Low values mean a high IC50, high ones a low IC50.

The structures appear in SMILES notation. pIC50: −log10 of the molar value.

On to `N#Cc1ccccc1C(=O)C[N+](=O)[O-]`, for which the melting point lay in the range of 147 to 149 °C. Still for that read-out and setting: the result for `CCc1ccccc1C(=O)C[N+](=O)[O-]` reads 62 to 63 °C. The same measure, in the same setting: the result for `O=C(C[N+](=O)[O-])c1ccccc1C(F)(F)F` reads 55 to 57 °C. The same measure, in the same setting: the same measure for `CCOc1ccccc1C(=O)C[N+](=O)[O-]`: 145 to 148 °C; for `CC(C)Oc1ccccc1C(=O)C[N+](=O)[O-]`: 78 to 80 °C. In turn, `O=C(C[N+](=O)[O-])c1ccccc1OC(F)(F)F` [Example 1, Nitromethyl 2-Trifluoromethoxyphenyl Ketone] showed a pIC50 in series [1] of 7.39. The “Protection against increase in sorbitol after administration 10 mg/kg/d (%)” value (from here on “Protection against increase in sorbitol … (%)”) in series [2] is recorded as 70%. Turning to `CCCCCC(=O)Nc1ccc(C(=O)C[N+](=O)[O-])c(Cl)c1` [Example 20, N-[3-chloro-4-nitromethylcarbonylphenyl]hexaneamide], the melting point lay in the range of 60 to 63 °C.

As to `CC(C(=O)Nc1ccc(C(=O)C[N+](=O)[O-])c(Cl)c1)c1ccccc1` (stereo not drawn) [Example 23, N-[3-Chloro-4-nitromethylcarbonylphenyl]-2-phenylpropaneamide], the melting point fell in the range of 136 to 137 °C. In series [1], this molecule showed a pIC50 of 8.15. In series [2], the “Protection against increase in sorbitol … (%)” value was 40%.

Consider `O=C(Cc1ccccc1)Nc1ccc(C(=O)C[N+](=O)[O-])c(Cl)c1` [Example 24, N-[3-Chloro-4-nitromethylcarbonylphenyl]phenylacetamide], for which the melting point lay within 121 to 124 °C. For the same molecule, the pIC50 in series [1] is 8.15. Besides, the “Protection against increase in sorbitol … (%)” value in series [2] came out at 45%. The molecule `O=C(Cc1ccccc1Cl)Nc1ccc(C(=O)C[N+](=O)[O-])c(Cl)c1` [Example 28, 2-Chloro-N-[3-chloro-4-nitromethylcarbonylphenyl]phenylacetamide] gave a negative logarithm of the IC50 (pIC50) in series [1] of 8.15. In series [2], the “Protection against increase in sorbitol … (%)” value was determined as 58%.

`O=C(Cc1ccccc1C(F)(F)F)Nc1ccc(C(=O)C[N+](=O)[O-])c(Cl)c1` [Example 30, N-[3-Chloro-4-nitromethylcarbonylphenyl]-2-trifluoromethylphenylacetamide]: the melting point lay within 160 to 162 °C. This molecule also gave a negative logarithm of the IC50 (pIC50) in series [1] of 8.15. In series [2], the “Protection against increase in sorbitol … (%)” value was found to be 61%. In turn, `CC(=O)Nc1cccc(C(=O)C[N+](=O)[O-])c1Cl` [Example 34, N-[2-Chloro-3-nitromethylcarbonylphenyl]acetamide] had a melting point of 140 to 142 °C.

In turn, `O=C(C[N+](=O)[O-])c1cc(NS(=O)(=O)c2ccccc2)ccc1Cl` [Example 38, N-[4-Chloro-3-nitromethylcarbonylphenyl]benzenesulfonamide] yielded a melting point of 152 to 154 °C. In turn, `Cc1ccccc1CC(=O)Nc1ccc(C(=O)C[N+](=O)[O-])c(Cl)c1` [Example 43, N-[3-Chloro-4-nitromethylcarbonylphenyl]-2-methylphenylacetamide] showed a pIC50 in series [1] of 8.15. The “Protection against increase in sorbitol … (%)” value in series [2] is listed as 70%.

With `Cc1ccccc1CC(=O)Nc1ccc(C(=O)C[N+](=O)[O-])c(C)c1` [Example 59, N-[3-Methyl-4-nitromethylcarbonylphenyl]-2-methylphenylacetamide], the pIC50 in series [1] was 8.22. The “Protection against increase in sorbitol … (%)” value in series [2] is reported as 52%.

In turn, `Cc1ccccc1CC(=O)Nc1ccc(C(=O)C[N+](=O)[O-])cc1Br` [Example 60, N-[2-Bromo-4-nitromethylcarbonylphenyl]-2-methylphenylacetamide] showed a melting point of 125 to 127 °C. Still for that read-out and setting: the same measure for `O=C(C[N+](=O)[O-])c1ccc(Sc2ccccc2)cc1Cl` [Example 64, Nitromethyl 2-Chloro-4-phenylthiophenyl Ketone]: 77 to 78 °C.

The values above are taken from patent US6559185B2, “Nitromethyl ketone compounds having aldose reduction inhibiting properties and methods for their use” (Merck Patent GmbH, priority 1997, dated 2003).
